Results published in paper PMC6952399, “Structures of lipoprotein signal peptidase II from Staphylococcus aureus complexed with antibiotics globomycin and myxovirescin” (Nature Communications, 2020).
“And” between values parts separate entries of the source, which are not always exact repeats. Identical values can stand only once.

Molecular target: T1, LspPae (lipoprotein signal peptidase II from Pseudomonas aeruginosa) (Pseudomonas aeruginosa, UniProt Q9HVM5)
T1 construct: made in house
T1 sequence (Q9HVM5 1-169): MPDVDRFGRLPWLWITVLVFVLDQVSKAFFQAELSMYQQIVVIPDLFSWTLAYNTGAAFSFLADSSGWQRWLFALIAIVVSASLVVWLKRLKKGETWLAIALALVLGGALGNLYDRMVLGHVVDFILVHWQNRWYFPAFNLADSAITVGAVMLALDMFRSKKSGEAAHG
Test: FRET lipopeptide peptidase assay, LspPae
Format: biochemical
Conditions: for Fluorescence (RFU): FRET substrate + LspA + Myxovirescin; for Rate (RFU/min) / Normalised rate (Vi/V0): replicates 1 and 2; for Ki: estimated Ki’ (apparent inhibition constant)
Method: FRET activity assays. A FRET based assay was developed using a labelled lipopeptide substrate (Supplementary Methods, Supplementary Fig. 3b) to directly monitor the protease activity of LspA. The optimised LspMrs assay buffer included 100 mM Tris/HCl pH 7.8, 150 mM NaCl and 0.09%(w/v) DDM. The corresponding optimized buffer for LspPae included 100 mM MES/NaOH pH 5.6, 150 mM NaCl and 0.05%(w/v) LMNG. All assays were performed at 37 °C.
Reaction mixtures were prepared by vortexing (Clifton, cyclone CM-1) for 2 s and incubated at 37 °C, 800 rpm for 10 to 30 min. […] For dose-response assays, the final DMSO concentration in all reactions was 10%(v/v). Reaction mixtures were pipetted into wells of a 96- (Thermo Scientific) or a 384-well plate (4titude®) and incubated for 10 min at 37 °C in a SpectraMax M3 or a SpectraMax M5e plate reader (Molecular devices) prior to starting the assay. Assays were initiated by adding enzyme to a final concentration in the range 10–300 nM. Total reaction mixture volume was 50 μL. Reactions were monitored by fluorescence (Ex/Em, 320 nm/420 nm) for 30 to 60 min at 37 °C. Initial rates were calculated from the fluorescence intensity versus time progress curves (Supplementary Figs. 5 and 6). Occasionally, lag periods in the progress curves were observed (Supplementary Discussion). In such cases, initial rates were calculated after the lag period had passed (typically 1–5 min) and a steady rate had been established. Dose-response plots to determine IC50 values were generated using Prism® 5 software from GraphPad.
It was possible to convert units of fluorescence change into moles of substrate consumed or products formed because pure products of LspA action on Abz-LALAGC*SS-nY-NH2 had been synthesized and were available. These were used to create a standard curve of fluorescence versus moles of the two products in equimolar amounts and to calculate specific activity values. […]
One consequence of LspMrs having a relatively low specific activity is that, in order to get a reliable signal in activity assays, it was necessary to raise enzyme concentration. For kinetic measurements generally, it is desirable to use an enzyme concentration that is much lower than that of the substrate. In this situation, the usual assumption that added and free substrate concentrations are equal is valid. At high enzyme concentrations [E] therefore, and especially in the case of tight ligand binding where the inhibition constant, Ki, is small, a measured IC50 is limited to [E]/2 4–6. In such circumstances, a meaningful IC50 or Ki can only be obtained with considerable effort. With a few exceptions in the current study, this situation prevailed with both LspA orthologs where IC50 values came close to [E]/2 (Table 1 and Supplementary Table 3, Supplementary Fig. 6). […]
Inhibition of LspA from E. coli by globomycin has been described as non-competitive7. The evidence provided in support o f this conclusion included an insensitivity of IC 50 to substrate concentration and the fact that the Vmax but not the K m changed with globomycin concentration. It was of interest to determine if a similar mode of inhibition applied to LspPae and LspMrs. From published work7–9 and from FRET-based kinetics measurements reported here, we know that globomycin binds with high affinity (Supplementary Fig. 6). Tight binding means that a more in-depth analysis must be carried out in order to identify inhibition type. For such analysis, it is important to know active enzyme concentration accurately. Fortunately, it was possible to use the property of tight inhibitor binding to measure the concentration of active enzyme ( Supplementary Fig. 18a). In the case of LspPae, the estimated value and the concentration determined spectroscopically agreed remarkably well. Parenthetically we note that knowing active LspPae concentration accurately enabled a characterization of the myxovirescin sample used in this study. Myxovirescin also binds tightly to LspA (Supplementary Fig. 6). […]

[1] = Suppl. Fig. 18b, [Myxovirescin] 0.02 μM
[2] = Suppl. Fig. 18b, [Myxovirescin] 0.05 μM
[3] = Suppl. Fig. 18b, [Myxovirescin] 0.08 μM
[4] = Suppl. Fig. 18b, [Myxovirescin] 0.1 μM
[5] = Suppl. Fig. 18b, [Myxovirescin] 0.12 μM
[6] = Suppl. Fig. 18b, [Myxovirescin] 0.15 μM
[7] = Suppl. Fig. 18b, [Myxovirescin] 0.25 μM
[8] = Suppl. Fig. 18c, [Myxovirescin] nominal conc. 0.02 μM, corrected conc. 0.01454 μM
[9] = Suppl. Fig. 18c, [Myxovirescin] nominal conc. 0.05 μM, corrected conc. 0.03635 μM
[10] = Suppl. Fig. 18c, [Myxovirescin] nominal conc. 0.08 μM, corrected conc. 0.05816 μM
[11] = Suppl. Fig. 18c, [Myxovirescin] nominal conc. 0.1 μM, corrected conc. 0.0727 μM
[12] = Suppl. Fig. 18c, [Myxovirescin] nominal conc. 0.12 μM, corrected conc. 0.08724 μM
[13] = Suppl. Fig. 18c, [Myxovirescin] nominal conc. 0.15 μM, corrected conc. 0.10905 μM
[14] = Suppl. Fig. 18c, [Myxovirescin] nominal conc. 0.25 μM, corrected conc. 0.18175 μM

CCCC1OC(=O)C(C)CC(C)CCCCC(=O)CCCC(CC)C=CC=C(COC)CCC(O)C(O)CC(O)CNC1=O (centres unmarked) [myxovirescin, myxovirescin A1]
inhibitor on-rates (5-fold molar excess of antibiotic added 20 to 30 min after start of reaction): fast | Fluorescence (RFU) (time 27 min): 524.203 RFU | Fluorescence (RFU) (time 27.5 min): 527.644 RFU | Fluorescence (RFU) (time 28 min): 525.326 RFU | Fluorescence (RFU) (time 28.5 min): 532.036 RFU | Fluorescence (RFU) (time 29 min): 530.446 RFU | Fluorescence (RFU) (time 29.5 min): 520.770 RFU | Fluorescence (RFU) (time 30 min): 525.266 RFU | Fluorescence (RFU) (time 30.5 min): 523.492 RFU | Fluorescence (RFU) (time 31 min): 522.555 RFU | Fluorescence (RFU) (time 31.5 min): 520.169 RFU | Fluorescence (RFU) (time 32 min): 526.741 RFU | Fluorescence (RFU) (time 32.5 min): 523.010 RFU | Fluorescence (RFU) (time 33 min): 519.722 RFU | Fluorescence (RFU) (time 33.5 min): 528.885 RFU | Fluorescence (RFU) (time 34 min): 517.843 RFU | Fluorescence (RFU) (time 34.5 min): 518.721 RFU | Fluorescence (RFU) (time 35 min): 516.893 RFU | Fluorescence (RFU) (time 35.5 min): 521.148 RFU | Fluorescence (RFU) (time 36 min): 519.865 RFU | Fluorescence (RFU) (time 36.5 min): 522.746 RFU | Fluorescence (RFU) (time 37 min): 519.603 RFU | Fluorescence (RFU) (time 37.5 min): 522.440 RFU | Fluorescence (RFU) (time 38 min): 518.255 RFU | Fluorescence (RFU) (time 38.5 min): 516.274 RFU | Fluorescence (RFU) (time 39 min): 516.879 RFU | Fluorescence (RFU) (time 39.5 min): 521.400 RFU | Fluorescence (RFU) (time 40 min): 509.974 RFU | Fluorescence (RFU) (time 40.5 min): 516.718 RFU | Fluorescence (RFU) (time 41 min): 513.520 RFU | Fluorescence (RFU) (time 41.5 min): 514.018 RFU | Fluorescence (RFU) (time 42 min): 520.839 RFU | Fluorescence (RFU) (time 42.5 min): 520.491 RFU | Fluorescence (RFU) (time 43 min): 514.424 RFU | Fluorescence (RFU) (time 43.5 min): 516.271 RFU | Fluorescence (RFU) (time 44 min): 509.335 RFU | Fluorescence (RFU) (time 44.5 min): 511.506 RFU | Fluorescence (RFU) (time 45 min): 512.926 RFU | Fluorescence (RFU) (time 45.5 min): 515.088 RFU | Fluorescence (RFU) (time 46 min): 509.497 RFU | Fluorescence (RFU) (time 46.5 min): 509.153 RFU | Fluorescence (RFU) (time 47 min): 505.807 RFU | Fluorescence (RFU) (time 47.5 min): 508.613 RFU | Fluorescence (RFU) (time 48 min): 508.252 RFU | Fluorescence (RFU) (time 48.5 min): 514.611 RFU | Fluorescence (RFU) (time 49 min): 508.852 RFU | Fluorescence (RFU) (time 49.5 min): 511.333 RFU | Fluorescence (RFU) (time 50 min): 507.505 RFU | Fluorescence (RFU) (time 50.5 min): 508.404 RFU | Fluorescence (RFU) (time 51 min): 511.832 RFU | IC50 (IC50, 20 nM LspPae, substrate 5 µM): 9.76 nM and 12.3 nM | IC50 (IC50, 20 nM LspPae, substrate 7.5 µM): 10.4 nM and 12.9 nM | IC50 (IC50, 20 nM LspPae, substrate 10 µM): 11.1 nM and 14.4 nM | IC50 (IC50, 20 nM LspPae, substrate 15 µM): 8.51 nM and 11.1 nM | IC50 (IC50, 20 nM LspPae, substrate 20 µM): 9.14 nM and 13.9 nM | IC50 (IC50, 20 nM LspPae, substrate 30 µM): 11.4 nM and 13.8 nM | IC50 (IC50, FRET, 0.1 µM enzyme, 30 µM substrate, initial rates): 53 nM | IC50 (IC50, LspPae concentration 10 nM): 4.1 nM and 5 nM | IC50 (IC50, LspPae concentration 20 nM): 13.5 nM and 21.2 nM | IC50 (IC50, LspPae concentration 40 nM): 20.3 nM and 26.1 nM | IC50 (IC50, LspPae concentration 60 nM): 24.5 nM and 34.1 nM | IC50 (IC50, LspPae concentration 80 nM): 41.7 nM and 50.6 nM | IC50 (IC50, LspPae concentration 100 nM): 49.2 nM and 55.8 nM | Rate (RFU/min) (LspPae block, log [myxo] (uM) -0.82): 0.2 RFU/min | Rate (RFU/min) (LspPae block, log [myxo] (uM) -0.92): 0.1 RFU/min and 0.2 RFU/min | Rate (RFU/min) (LspPae block, log [myxo] (uM) -1.00): 0.1 RFU/min and 0.2 RFU/min | Rate (RFU/min) (LspPae block, log [myxo] (uM) -1.10): 1.3 RFU/min and 1.5 RFU/min | Rate (RFU/min) (LspPae block, log [myxo] (uM) -1.30): 5.8 RFU/min and 6.2 RFU/min | Rate (RFU/min) (LspPae block, log [myxo] (uM) -1.70): 10.2 RFU/min and 10.1 RFU/min | Rate (RFU/min) (LspPae block, log [myxo] (uM) -2.00): 11.4 RFU/min and 11.5 RFU/min | Normalised rate (Vi/V0) [1]: 0.8634 and 0.8943 | Rate (RFU/min) [1]: 45.52 RFU/min and 45.67 RFU/min | Normalised rate (Vi/V0) [2]: 0.6591 and 0.6875 | Rate (RFU/min) [2]: 34.75 RFU/min and 35.11 RFU/min | Normalised rate (Vi/V0) [3]: 0.4365 and 0.4511 | Rate (RFU/min) [3]: 23.01 RFU/min and 23.04 RFU/min | Normalised rate (Vi/V0) [4]: 0.2771 and 0.2863 | Rate (RFU/min) [4]: 14.61 RFU/min and 14.62 RFU/min | Normalised rate (Vi/V0) [5]: 0.09825 and 0.09947 | Rate (RFU/min) [5]: 5.18 RFU/min and 5.08 RFU/min | Normalised rate (Vi/V0) [6]: 0.01309 and 0.02976 | Rate (RFU/min) [6]: 0.69 RFU/min | Normalised rate (Vi/V0) [7]: 0.01574 and 0.02741 | Rate (RFU/min) [7]: 0.83 RFU/min and 1.4 RFU/min | Normalised rate (Vi/V0) [8]: 0.8634 and 0.8943 | Rate (RFU/min) [8]: 45.52 RFU/min and 45.67 RFU/min | Normalised rate (Vi/V0) [9]: 0.6591 and 0.6875 | Rate (RFU/min) [9]: 34.75 RFU/min and 35.11 RFU/min | Normalised rate (Vi/V0) [10]: 0.4365 and 0.4511 | Rate (RFU/min) [10]: 23.01 RFU/min and 23.04 RFU/min | Normalised rate (Vi/V0) [11]: 0.2771 and 0.2863 | Rate (RFU/min) [11]: 14.61 RFU/min and 14.62 RFU/min | Normalised rate (Vi/V0) [12]: 0.09825 and 0.09947 | Rate (RFU/min) [12]: 5.18 RFU/min and 5.08 RFU/min | Normalised rate (Vi/V0) [13]: 0.01309 and 0.02976 | Rate (RFU/min) [13]: 0.69 RFU/min | Normalised rate (Vi/V0) [14]: 0.01574 and 0.02741 | Rate (RFU/min) [14]: 0.83 RFU/min and 1.4 RFU/min | IC50 (average IC50, 20 nM LspPae, substrate 2.5 or 5 to 30 µM): ~10 nM | Ki (Morrison analysis, 30 µM substrate, 0.1 µM LspPae): 0.0476 ± 0.128 nM | Ki (from dependence of IC50 on enzyme concentration, IC50 = Ki’ + [E]/2): 2.69 ± 2.8 nM
